{"source": "patent US11312695B2", "about": "“Nutrients to enhance load-induced muscle hypertrophy” (The Regents of the University of California, priority 2020, dated 2022)", "biological_target": "T1, purified human SIRT1 (Homo sapiens, UniProt Q96EB6)", "T1 sequence (Q96EB6 1-747)": "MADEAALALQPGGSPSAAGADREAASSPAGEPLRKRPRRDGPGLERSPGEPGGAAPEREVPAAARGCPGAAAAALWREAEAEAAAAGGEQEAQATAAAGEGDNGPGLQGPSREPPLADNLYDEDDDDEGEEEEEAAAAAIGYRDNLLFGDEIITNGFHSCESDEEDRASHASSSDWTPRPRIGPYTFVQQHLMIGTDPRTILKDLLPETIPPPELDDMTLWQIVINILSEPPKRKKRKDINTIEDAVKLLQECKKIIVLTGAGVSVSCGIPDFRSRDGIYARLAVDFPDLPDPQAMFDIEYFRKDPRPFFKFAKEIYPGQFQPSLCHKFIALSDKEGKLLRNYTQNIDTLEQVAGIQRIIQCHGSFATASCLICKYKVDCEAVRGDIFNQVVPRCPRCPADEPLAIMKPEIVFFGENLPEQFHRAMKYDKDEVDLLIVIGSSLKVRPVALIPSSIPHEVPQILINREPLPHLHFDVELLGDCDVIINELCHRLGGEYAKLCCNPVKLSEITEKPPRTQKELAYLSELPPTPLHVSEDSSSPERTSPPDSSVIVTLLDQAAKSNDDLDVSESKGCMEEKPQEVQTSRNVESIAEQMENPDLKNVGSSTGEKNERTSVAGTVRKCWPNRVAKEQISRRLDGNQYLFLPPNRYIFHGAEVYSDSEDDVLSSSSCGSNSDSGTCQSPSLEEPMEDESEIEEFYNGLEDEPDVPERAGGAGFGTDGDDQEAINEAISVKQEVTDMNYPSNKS", "experiment": "SIRT1 inhibitor screen (mobility shift assay, p53 substrate)", "format": "biochemical", "conditions": "2 ng/μl SIRT1, 3 μM p53 substrate; for inhibition at 5 µM / percent inhibition of SIRT1 at 5 μM: 5 μM compound; for inhibition at 5 µM: read-out: percent inhibition of SIRT1 at 5 μM; for inhibition at 50 µM / percent inhibition of SIRT1 at 50 μM: 50 μM compound; for inhibition at 50 µM: read-out: percent inhibition of SIRT1 at 50 μM", "protocol": "The NatProd Collection library (MicroSource Discovery Systems, Inc. Gaylordsville, Conn.) in ten source plates was screened at two doses (50 μM and 5 μM final in the reaction mixture, duplicate for each dose). The inhibitory activity of the compounds was assessed against 2 ng/μ1 purified human SIRT1 using 3 μM p53 as a substrate. The assay was a mobility shift assay based on charge differences before and after electrophoretic separation of product from fluorescently labeled substrate read using a Caliper EZ Reader (Perkin Elmer, Boston, Mass.). All reactions took place in the presence of excess nicotinamide adenine dinucleotide and the known SIRT1 inhibitor suramin was used as a control.", "data": [{"smiles": "CC1=C(O)C(=O)C=C2C1=CC=C1[C@@]2(C)CC[C@@]2(C)[C@@H]3C[C@](C)(C(=O)O)CC[C@]3(C)CC[C@]12C", "note": "[Celastrol]", "values": [{"measurement": "inhibition at 5 µM", "result": 101, "unit": "%"}, {"measurement": "inhibition at 50 µM", "result": 100, "unit": "%"}]}, {"smiles": "Cc1c(O)c(O)cc2c1CC=C1[C@@]2(C)CC[C@@]2(C)[C@@H]3C[C@](C)(C(=O)O)CC[C@]3(C)CC[C@]12C", "note": "[Dihydrocelastrol]", "values": [{"measurement": "inhibition at 5 µM", "result": 84, "unit": "%"}, {"measurement": "inhibition at 50 µM", "result": 99, "unit": "%"}]}, {"smiles": "O=C(O[C@@H]1Cc2c(O)cc(O)cc2O[C@@H]1c1ccc(O)c(O)c1)c1cc(O)c(O)c(O)c1", "note": "[Epicatechin monogallate]", "values": [{"measurement": "percent inhibition of SIRT1 at 5 μM", "result": 66}, {"measurement": "percent inhibition of SIRT1 at 50 μM", "result": 99}]}, {"smiles": "O=C(O[C@@H]1Cc2c(O)cc(O)cc2O[C@@H]1c1cc(O)c(O)c(O)c1)c1cc(O)c(O)c(O)c1", "note": "[Epigallocatechin-3-monogallate]", "values": [{"measurement": "percent inhibition of SIRT1 at 5 μM", "result": 72}, {"measurement": "percent inhibition of SIRT1 at 50 μM", "result": 99}]}]}
